The values below come from patent US4510338A, “Resorcin derivatives, process for their preparation and pharmaceutical compositions containing them” (priority 1982, dated 1985).

For one data set, the system named is ethanolic narcosis. Description: Ethanolic narcosis period (righting reflex). Type of data set: in vivo, Hann.-Wistar rats. The note with it: for Ethanolic narcosis period (x ± S.E. %), related to control: 1 h before 3.5 g/kg ethanol i.p., n=10. How it is done:
The change of ethanolic narcosis period was tested on Hann.-Wistar rats of both sexes weighing 160 to 180 g. each, which were fasted for 16 hours prior to treatment. Groups of ten were treated with various doses of a test compound of the formula (I), orally. One hour after treatment the rats were administered a 3.5 g./kg. dose of ethanol intraperitoneally. The narcosis period of the animals was measured from the elapse of the righting reflex until a spontaneous correction of the body position. The average of the narcosis period and the percentage difference related to the control were calculated. The control group was treated with placebo and a […]. dose of ethanol. Control narcosis period: 99.6±6.55 (x±S.E.) min.

The next data set in a line: in vivo. The note with it: rat, oral, male Hann.-Wistar rats, 14 days observation, probit analysis. The method, then:
The acute toxicity of the compounds according to the invention was tested on male Hann.-Wistar rats each weighing 160 to 180 g. The animals were treated with various doses of the test compounds orally, and the dose resulting in the perish of 50% of the animals was calculated by probite analysis from the %-age of the perished animals.

Data set [1] concerns ethanolic locomotor activity. As to the kind of experiment: Locomotor activity change by ethanol (Animex BSE motimeter). The data set is classed as in vivo, BALB/c mice. To be noted: n=15. How it is done: The change of ethanolic locomotor activity was tested on BALB/c mice of both sexes, weighing 16 to 18 g. each. Groups of 15 were treated with a 40 mg./kg. oral dose of the test compound 60 minutes prior to the administration of placebo and 2 g./kg. ethanol, respectively (i.p.).
The control animals were treated with placebo. The locomotor activity of the animals was measured for two hours with an Animex BSE motimeter.

Data set [2] deals with ataxia induced by ethanol. As to the kind of experiment: Ataxia induced by ethanol, rotarod test. The data set is classed as in vivo, BALB/c mice. How it is done:
Previously trained and selected BALB/c mice weighing 16 to 18 g. each were treated with a 40 mg./kg. dose of the compound to be tested orally, one hour before the intraperitoneal administration of a 2.5 g./kg. dose of ethanol. The number of the animals remaining on the rods 60, 90 and 120 minutes, resp., after treatment with ethanol was determined. The animals having an intact coordination could stay at the rod as long as 120 minutes. The test was carried out on groups of ten.
On the technique in general: The rotarod test checks motor coordination on a turning rod.

Data set [3] has as its system alcoholic intoxication, narcosis. To be noted: Sprince et al. 1974; Nagasawa et al. 1975; cited from earlier work.
Data set [4] has as its system ethanolic locomotoric hyperactivity. To be noted: mice, Carlsson et al. 1972, cited from earlier work.

Regarding `CCC(O)(c1cccc(C(F)(F)F)c1)c1ccc(O)cc1O` (stereo not drawn) [A, 4-[1-(3-trifluoromethylphenyl)-1-hydroxypropyl]-resorcin], the “Ethanolic narcosis period (x ± S.E. %), related to control” value in the data set with ethanolic narcosis (0.3 mg/kg orally) came to 70 ± 11.4%; in the data set on ethanolic narcosis (1.0 mg/kg orally), 60 ± 9.2%; with ethanolic narcosis (5.0 mg/kg orally) it was 36 ± 4.0%; in the data set on ethanolic narcosis (20.0 mg/kg orally), 30 ± 5.5%. The molecule further registered a median lethal dose (LD50) at 336 h in the data set “in vivo” of 1250 mg/kg. For the same molecule, the “Total locomotor motion/2 hours in % of the control” value in data set [1] (40 mg/kg oral + placebo (no ethanol)) was 110 ± 10.3%; in data set [1] (40 mg/kg oral, 60 min before 2000 mg/kg ethanol i.p.), 98 ± 9.5%. Also, the “Animals remaining on the rotating rod (%)” value in data set [2] (40 mg/kg oral + 2500 mg/kg ethanol i.p., 60 min) came out at 40%; in data set [2] (40 mg/kg oral + 2500 mg/kg ethanol i.p., 90 min) it was 60%; in data set [2] (40 mg/kg oral + 2500 mg/kg ethanol i.p., 120 min) it was 100%; in data set [2] (40 mg/kg oral, no ethanol, 60 min), 100%; in data set [2] (40 mg/kg oral, no ethanol, 90 min) it was 100%; in data set [2] (40 mg/kg oral, no ethanol, 120 min), 100%.

Regarding `N[C@@H](CS)C(=O)O` [L-cysteine, reference compound], the “Ethanolic narcosis period (x ± S.E. %), related to control” value with ethanolic narcosis (500.0 mg/kg orally) is on record as 63 ± 4.2%. Besides, the “Dose dependence of effect on ethanolic narcosis period” value in the data set with ethanolic narcosis (rats, oral) is recorded as “dose-dependent, unlike that of L-cysteine”. Besides, in data set [3], the “Alcoholic intoxication, narcosis duration” value is listed as “shortened”.

On to `CC(N)(Cc1ccc(O)cc1)C(=O)O` (stereo not drawn) [α-Methyl-para-tyrosine], for which the “Spontaneous locomotoric activity” value in data set [4] (same dose range) is given as “decreases the spontaneous locomotoric activity”. In data set [4], the “Ethanolic locomotoric hyperactivity” value was “normalizes the ethanolic locomotoric hyperactivity”.

For orientation: LD50 means the dose expected to kill half of the subjects tested. A low value points to greater toxicity.
